Data reported in patent US20210116467A1, “DIABETES-RELATED BIOMARKERS AND TREATMENT OF DIABETES-RELATED CONDITIONS” (priority 2015, published 2021).

system: GLP1; assay: GLP1 production induced by treatment with bile acids (immunofluorescence staining of TGR5 and GLP1 in CCL-241 cells); format: cell-based; conditions: CCL-241 human small intestinal normal epithelial cells; 100 μM bile acid; compared to wild type (WT) and DMSO controls; FIG. 13
Description: Several bile acids were tested for their ability to increase production of GLP-1. Without being bound by theory, the inventor believes that compounds which increase the production of GLP-1 provide an anti-diabetic effect.
CCL-241, a human small intestinal normal epithelial cell were treated with 100 μM of different bile acids and compared to that of wild type (WT) and DMSO treatment as controls. The expression of TGR5 and GLP1 were detected by Immunofluorescence staining.

SMILES	GLP1-promotion effect (expression of GLP1 detected by immunofluorescence staining)
C[C@H](CCC(=O)O)[C@H]1CC[C@H]2[C@@H]3CC[C@@H]4C[C@H](O)CC[C@]4(C)[C@H]3C[C@H](O)[C@]12C [DCA]	substantial GLP-1 promotion effect
C[C@H](CCC(=O)NCC(=O)O)[C@H]1CC[C@H]2[C@@H]3C[C@H](O)[C@@H]4C[C@H](O)CC[C@]4(C)[C@H]3CC[C@]12C [GHDCA, Glycohyodeoxycholic acid]	strongest GLP1-promotion effect
C[C@H](CCC(=O)O)[C@H]1CC[C@H]2[C@@H]3[C@H](O)[C@H](O)[C@@H]4C[C@H](O)CC[C@]4(C)[C@H]3CC[C@]12C [HCA, Hyocholic acid]	strongest GLP1-promotion effect
C[C@H](CCC(=O)O)[C@H]1CC[C@H]2[C@@H]3C[C@H](O)[C@@H]4C[C@H](O)CC[C@]4(C)[C@H]3CC[C@]12C [HDCA, Hyodeoxycholic acid]	strongest GLP1-promotion effect
O=C(O)C(Cl)(Cl)Cl [TCA]	substantial GLP-1 promotion effect
C[C@H](CCC(=O)NCCS(=O)(=O)[O-])[C@H]1CC[C@H]2[C@@H]3C[C@H](O)[C@@H]4C[C@H](O)CC[C@]4(C)[C@H]3CC[C@]12C.[Na+] [THDCA, Taurohyodeoxycholic acid]	strongest GLP1-promotion effect
